Among the data in PubChem BioAssay (NCI) are GI50 and TGI values, retold here.

Assay in all cases: NCI anticancer screen, dose series, 48 h
The subject of assay [1] is NCI-H226 lung.
The subject of assay [2] is COLO 205 colon.
For assay [3], the system named is TK-10 renal.
In assay [4] the test system is EKVX NSCLC.
The test system of assay [5] is KM12 colon.
For assay [6], the system named is HL-60(TB) leukemia.
The test system of assay [7] is HOP-92 NSCLC.
Assay [8] deals with OVCAR-5 ovarian.
The test system of assay [9] is OVCAR-4 ovarian.

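Protocol summary: plate cells (96-well), add compound at 5 concentrations, incubate 48 h, interpolate endpoints linearly. Abbreviation: GI50, concentration required for 50% inhibition of growth. TGI marks complete inhibition of growth.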 Where a SMILES comes first, the peptide text is derived from it. [ ]: non-standard residue; d: D form. Phe(4-Cl) = N[CH](Cc1ccc(Cl)cc1)C(=O)O Some results are limits rather than exact numbers.

On to `N.N.N.N.N.O=C([O-])c1nn[n-]n1.[Cl-].[Co+3]`, for which the GI50 in assay [1], in assay [2], in assay [3], in assay [4], in assay [5] and in assay [6] was above 100 µM throughout. Further, the GI50 in assay [7], in assay [8] and in assay [9] was above 100 µM each time. The TGI in [1], in assay [2], in [3], in assay [4], in [5] and in assay [6] was above 100 µM each time. The TGI in [7], in assay [8] and in assay [9] was above 100 µM each time.

As to `O=C(O)CN(c1ccccc1)S(=O)(=O)c1ccccc1[N+](=O)[O-]`, the TGI in [1], in [2], in [3], in [4], in assay [5] and in assay [6] was above 100 µM throughout. In addition, the TGI in assay [7], in assay [8] and in assay [9] was above 100 µM throughout.

Consider `Nc1ccc(/C=C/c2ccnc3ccccc23)cc1`, for which the TGI was 47.7 µM in assay [1]; 48.6 µM in [2]; 57.7 µM in assay [3]; 49.3 µM in assay [5]; 23.8 µM in assay [6]; 50.9 µM in assay [7]. The TGI in [8] was 60.9 µM; in [9], above 100 µM.

Turning to `CCOC(=O)NC(=O)c1cn(CCOCCOC(=O)NCCCCCCNC(=O)OCCOCCn2cc(C(=O)NC(=O)OCC)c(=O)[nH]c2=O)c(=O)[nH]c1=O`, the TGI in assay [2], in assay [3], in assay [4], in assay [5], in [6] and in assay [7] was above 100 µM throughout. In addition, the TGI in [8] and in [9] was above 100 µM each time.

As to `CC1=C(C)CC2(CCCCC2=O)S(=O)C1` (stereo unspecified), the TGI in assay [1], in assay [2], in assay [3], in [4], in assay [5] and in assay [6] was above 100 µM in each case. Moreover, the TGI in [7], in assay [8] and in [9] was above 100 µM throughout.

Turning to `Cc1ccccc1N(CCC#N)C1=NN(C(=O)CC(=O)Nc2ccccc2)C(c2ccccc2)C1` (stereo unspecified), the TGI in [1], in assay [2], in assay [4], in assay [5], in assay [6] and in assay [7] was above 100 µM in each case. The TGI in assay [8] and in assay [9] was above 100 µM in each case.

With `Cn1cc(C(=O)c2ccccc2)ccc1=O`, the TGI in assay [1], in assay [2], in [3], in [4], in [5] and in assay [6] was above 100 µM each time. The TGI in assay [7], in assay [8] and in assay [9] was above 100 µM in each case.

In the case of `CC[O-].CC[O-].O=C1c2ccccc2C(=O)c2c(O)ccc([O-])c21.O=C1c2ccccc2C(=O)c2c(O)ccc([O-])c21.[Ti+4]`, the GI50 in assay [1] is above 100 µM. The TGI in assay [1], in [2], in [3], in [4], in assay [5] and in [6] was above 100 µM throughout. Further, the TGI in [8] and in assay [9] was above 100 µM in each case.

As to `CC(O)C(NC(=O)C(Cc1ccccc1)NC(=O)C(NC(=O)C(CCCCN)NC(=O)C(Cc1c[nH]c2ccccc12)NC(=O)C(Cc1ccc(O)cc1)NC(=O)C(Cc1ccc(Cl)cc1)NC(=O)C(N)Cc1ccccc1)C(C)O)C(N)=O` (stereo unspecified) (H-F[Phe(4-Cl)]YWKTFT-NH2; configuration not given here), the TGI is 51.7 µM in assay [2]; 32.2 µM in assay [4]; 33.5 µM in assay [5]; 28.6 µM in [6]; 58.7 µM in assay [9].

`CN(C)P(=O)(/C(N)=N/Nc1ccc([N+](=O)[O-])cc1)N(C)C`: the TGI in [1], in [2], in assay [3], in [4], in [5] and in [6] was above 100 µM each time. In addition, the TGI in assay [7], in assay [8] and in assay [9] was above 100 µM in each case.

Consider `C[N+](C)(C)CC1CCCC(C[N+](C)(C)C)C1=O` (stereo unspecified), for which the TGI in assay [1] is 31.4 µM; in [2], 0.923 µM; in assay [3], 4 µM; in assay [4], 3.95 µM; in assay [5] it was 12.5 µM; in assay [6], 2.22 µM. For the same compound, the values for the TGI in assay [7], in [8] and in assay [9] were 1.17 µM, 7.73 µM and 0.871 µM, respectively.

With `COC(=O)c1cccc2cccc(C(=O)Nc3ccc(C)cc3C)c12`, the TGI in [1] was above 100 µM; in [2] it was above 100 µM; in [3] it was above 100 µM; in assay [4], above 100 µM; in assay [5], above 100 µM; in assay [6] it was 35 µM. The TGI in assay [7], in [8] and in [9] was above 100 µM each time.

On to `C=CCCCCCCCCC(=O)NS(=O)(=O)c1ccccc1`, for which the TGI in assay [1], in assay [2], in assay [3], in assay [4], in assay [5] and in assay [6] was above 100 µM in each case. In addition, the TGI in assay [7], in [8] and in [9] was above 100 µM each time.

Consider `CCOC(=O)CN=c1nc(SC)sc2c(C(=O)OCC)nc(Sc3ccccc3)n12`, for which the TGI in assay [1], in assay [2], in assay [3], in [4], in assay [5] and in assay [6] was above 100 µM in each case. Further, the TGI in assay [7], in assay [8] and in [9] was above 100 µM each time.

As for `CC(C)(C)OC(=O)Cc1ccc2c(ccn2Cc2ccccc2)c1`, the TGI in [1], in [2], in assay [3], in assay [4], in assay [5] and in assay [6] was above 100 µM each time. The TGI in [7], in assay [8] and in [9] was above 100 µM each time.

For `N#Cc1nc(C2OC(COC(=O)c3ccccc3)C(OC(=O)c3ccccc3)C2OC(=O)c2ccccc2)oc1N` (stereo unspecified), the TGI in assay [1] is above 100 µM; in assay [2], above 100 µM; in [3], above 100 µM; in assay [4], above 100 µM; in assay [5] it was above 100 µM; in [6] it was 36.3 µM. The TGI in assay [7], in assay [8] and in [9] was above 100 µM in each case.

Take `Cc1noc(C)c1CCCOC1COc2ccccc2OCCOCCOc2ccccc2OC1`: the TGI in assay [1], in assay [2], in assay [3], in assay [4], in assay [5] and in [6] was above 100 µM throughout. Further, the TGI in assay [8] and in assay [9] was above 100 µM in each case.

On to `CN(C)CC/C(=N\Nc1c(Cl)cccc1Cl)c1ccccc1`, for which the TGI is 29.4 µM in [2]; 30.9 µM in [3]; 94.7 µM in assay [4]; 34.8 µM in [5]; 39.4 µM in assay [6]; 35.7 µM in assay [8]. The TGI in [9] is 47.4 µM.

For `CCOC1=NC(=O)CC(c2ccccc2)S1` (stereo unspecified), the TGI in assay [1], in assay [2], in assay [4], in assay [5], in assay [6] and in [7] was above 100 µM each time. For the same compound, the TGI in [8] and in [9] was above 100 µM throughout.

As for `COc1ccc2c(c1)CCC1C3(CCCC21C)OCCO3` (stereo unspecified), the TGI was 35.7 µM in assay [1]; 35.4 µM in assay [2]; above 100 µM in assay [3]; 82.3 µM in assay [4]; 51.7 µM in assay [5]; 43.2 µM in assay [6]. Further, the TGI in assay [7] was 35.3 µM; in [8], above 100 µM; in assay [9], above 100 µM.

`COC(=O)C1=NC(=S)NC(c2ccccc2)C1c1nc2ccccc2s1` (stereo unspecified): the TGI in assay [1], in assay [2], in assay [3], in assay [4], in [5] and in assay [6] was above 100 µM throughout. In addition, the TGI in assay [7] and in assay [9] was above 100 µM throughout.

As to `CC1=C2C(=O)O[C@@H](c3ccoc3)[C@]2(C)CCC1`, the TGI in assay [1], in assay [2], in assay [3], in [4], in [5] and in assay [6] was above 100 µM in each case. In addition, the TGI in [7], in assay [8] and in assay [9] was above 100 µM throughout.

On to `Cc1cccc(NC(=O)C(=O)Cc2nc3ccccc3[nH]c2=O)c1C`, for which the TGI in assay [1], in assay [2], in [3], in assay [4], in assay [5] and in [6] was above 100 µM in each case. Also, the TGI in [7], in assay [8] and in assay [9] was above 100 µM in each case.

Take `Cc1ccc2nc3c(C(=O)NCCN(C)C)cccc3nc2c1`: the TGI is 10.4 µM in assay [1]; above 22.4 µM in [2]; above 66 µM in assay [3]; 24.2 µM in assay [4]; 20.2 µM in [5]; above 100 µM in assay [6]. Further, the TGI in assay [7] is above 22.4 µM; in [8], 29.8 µM; in assay [9] it was 15.2 µM.

On to `CC(C)=CCC/C(=C/CC/C(C)=C/CCc1ccoc1)C(=O)O`, for which the TGI in [1], in assay [2], in [4], in assay [5], in assay [7] and in assay [8] was above 100 µM throughout. The compound also gave a TGI in [9] above 100 µM.

Turning to `Cc1ccc(S(=O)(=O)n2c(-c3ccccc3)c(-c3ccccc3)c3ccccc32)cc1`, the TGI in assay [1], in assay [2], in assay [3], in assay [4], in assay [5] and in assay [6] was above 100 µM in each case. The TGI in assay [7], in assay [8] and in [9] was above 100 µM each time.

In the case of `COc1c2c(cc3nc4ccccc4nc13)CCC(C(C)(C)O)C2` (stereo unspecified), the TGI is above 100 µM in [1]; above 100 µM in assay [2]; above 100 µM in [3]; above 100 µM in assay [4]; above 100 µM in [5]; 76 µM in assay [6]. For the same compound, the TGI in assay [7], in assay [8] and in assay [9] was above 100 µM in each case.

In the case of `COc1cc(OC(=O)c2c(O)cc(O)c(O)c2C)cc(C)c1C(=O)Oc1cc(C)c(C(=O)O)c(O)c1`, the TGI in [1], in assay [2], in [3], in assay [4], in assay [5] and in [6] was above 100 µM in each case. Also, the TGI in [7], in assay [8] and in assay [9] was above 100 µM each time.

Regarding `Cc1ccc(Nc2nc3c(s2)C(=O)c2ccccc2C3=O)c(C)c1`, the TGI in [1] amounted to 17.6 µM; in assay [2] it was 35.2 µM; in assay [3] it was 36.6 µM; in assay [4] it was 33 µM; in assay [5], 33 µM; in assay [6] it was 6.02 µM. Besides, the TGI was determined as 22.9 µM in assay [7], 34.8 µM in assay [8] and 25 µM in assay [9].
